Assay results reported in US6509367B1 (priority 2001, dated 2003).
Entries after “also recorded” stand apart in the source; their conditions may differ. Structures can show the parent of a compound that is named as a salt. Where two headings read alike, the source gives them in different places. Marks after values point to notes of the source that are not given here.

Assays:
CB1 receptor = CB1 receptor (Rattus norvegicus, UniProt P20272); experiment: biochemical; assay type: binding; settings: for Ki: 1 nM [3H] CP 55,940, rat whole brain P2 membranes, 30° C. for 1 hr
Chain of CB1 receptor (P20272 whole entry): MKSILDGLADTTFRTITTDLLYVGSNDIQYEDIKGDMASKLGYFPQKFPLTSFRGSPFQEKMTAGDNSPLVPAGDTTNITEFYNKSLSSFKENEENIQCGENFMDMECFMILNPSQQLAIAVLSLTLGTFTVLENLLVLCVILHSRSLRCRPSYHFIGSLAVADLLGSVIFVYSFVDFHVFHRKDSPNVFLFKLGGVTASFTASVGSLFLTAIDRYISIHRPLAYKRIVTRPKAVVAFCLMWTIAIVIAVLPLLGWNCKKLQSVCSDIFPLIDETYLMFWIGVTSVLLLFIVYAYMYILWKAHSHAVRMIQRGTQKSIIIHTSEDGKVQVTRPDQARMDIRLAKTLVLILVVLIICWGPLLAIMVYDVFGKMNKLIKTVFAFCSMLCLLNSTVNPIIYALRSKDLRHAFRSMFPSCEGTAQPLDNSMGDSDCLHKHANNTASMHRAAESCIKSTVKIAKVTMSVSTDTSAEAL
Description: (§1) Male ICR mice (25-32 g), purchased from Harlan (Dublin, Va.), were housed in groups of five. All animals were kept in a temperature-controlled (20-22° C.) environment with a 12-hour light-dark cycle (lights on at 7 a.m.). Separate mice were used for testing each drug dose in the in vivo behavioral procedures. The mice were maintained on a […] light: dark cycle, and received food and water ad libitum. Brain tissue for binding studies was obtained from male Sprague-Dawley rats (150-200 g) purchased from Harlan Laboratories (Dublin, Va.).
All assays, as described briefly below, were performed in triplicate, and the results represent the combined data from three to six individual experiments. Following decapitation and rapid removal of the brain, whole brain was homogenized and centrifuged. The resulting pellet was termed P1. The supernatant was saved and combined with the two subsequent supernatants obtained from washing of the P1 pellet. The combined supernatant fractions were centrifuged, resulting in the P2 pellet. After further incubation and centrifuging, this pellet was resuspended in assay buffer to a protein concentration of approximately 2 mg/ml. The membrane preparation was quickly frozen in a bath solution of dry ice and 2-methylbutane (Sigma Chemical Co., St. Louis, Mo.), then stored at −80° C. for no more than 2 weeks. […] Binding was initiated by the addition of 150 μg of P2 membrane to test tubes containing 1 nM of [3H] […] Following incubation at 30° C. for 1 hr, binding was terminated by addition of ice-cold buffer and vacuum filtration through pretreated filters in a 12-well sampling manifold (Millipore, Bedford, Mass.). After washing, filters were placed into plastic scintillation vials (Packard, Downer Grove, Ill.) and shaken. The quantity of radioactivity present was determined by liquid scintillation spectrometry.

mice [1] = experiment: Spontaneous (locomotor) activity in mice, compound alone (agonism test); assay type: in vivo; settings: for inhibition in vivo at 30 mg/kg: read-out: Max % inhibit of spontaneous locomotor activity, Compound Alone; for change in vivo at 3 mg/kg: at 3 mg/kg i.v.; for stimulation of locomotor activity: compound alone, dose not given (see Table 5)
Description: as §1
(§2) Measurement of spontaneous activity in mice occurred in standard activity chambers interfaced with a Digiscan Animal Activity Monitor (Omnitech Electronics, Inc., Columbus, Ohio). A standard tail-flick apparatus (described by Dewey et al., 1970) and a digital thermometer (Fisher Scientific, Pittsburgh, Pa.) were used to measure antinociception and rectal temperature, respectively.
(§3) All drugs were administered to the mice intravenously (i.v.) in the tail vein at a volume of 0.1 ml/10 g.
(§4) Maximum latency of 10 sec was used.

mice [2] = experiment: Tail-flick antinociception in mice, compound alone (agonism test); assay type: in vivo; settings: Mus musculus, iv
Description: as §1, §2, §3, §4

mice [3] = experiment: Rectal temperature (hypothermia) in mice, compound alone (agonism test); assay type: in vivo; settings: for ED50: Mus musculus, iv
Description: as §1, §2, §3, §4

mice [4] = experiment: Spontaneous activity in mice, compound in combination with 3 mg/kg Δ^9-THC (antagonism test); assay type: in vivo; settings: for SA: maximum % antagonism of 3 mg/kg Δ^9-THC: analog 10 min before Δ^9-THC
Description: as §1, §2, §3, §4

mice [5] = experiment: Antagonism tests with 3 mg/kg Δ^9-THC, stated across the measures (locomotor, antinociception, hypothermia)
mice [6] = experiment: Tail-flick antinociception in mice, compound in combination with 3 mg/kg Δ^9-THC (antagonism test); assay type: in vivo
Description: as §1, §2, §3, §4

mice [7] = experiment: Rectal temperature in mice, compound in combination with 3 mg/kg Δ^9-THC (antagonism test); assay type: in vivo
Description: as §1, §2, §3, §4

mice [8] = experiment: Agonism tests in mice, stated across the triad (spontaneous activity, tail flick, rectal temperature); settings: compound alone, i.v. doses up to 30 mg/kg
mice [9] = settings: cited from earlier work
mice [10] = settings: cited from earlier work; remark: listed apart in the source
mice [11] = settings: cited from earlier work; remark: listed apart in the source
[12] = Mus musculus, iv, mice, i.v., read-out: SA: > dose, 50% activity not achieved at this highest dose tested
[13] = read-out: TF: > dose, 50% activity not achieved at this highest dose tested
[14] = read-out: RT: > dose, 50% activity not achieved at this highest dose tested
[15] = Mus musculus, iv, at 30 mg/kg i.v.
[16] = Mus musculus, iv, mice, i.v., 95% confidence limits in parentheses, * = estimated ED50, dose-effect curve not linear, read-out: SA (suppression of spontaneous activity) ED50
[17] = 20 min, i.v., 20 min post-injection, 95% confidence limits in parentheses, * = estimated ED50, dose-effect curve not linear, read-out: TF (tail flick, % MPE) ED50
[18] = 0.5 h, i.v., 30 min post-injection, 95% confidence limits in parentheses, read-out: RT (rectal temperature) ED50
[19] = at the dose(s) [mg/kg] given in parentheses in the cell
[20] = Mus musculus, iv, read-out: Max stim of spontaneous locomotor activity, Compound Alone

CCC(C)c1ccc(-n2nc(C(=O)NN3CCCCC3)c(C)c2-c2ccc(Cl)cc2)cc1 (stereo not drawn) [Compound O-1253]
Ki (CB1 receptor; Ki (nM)): 47 ± 2 nM
CB1 binding affinity, fold less than SR 141716A (CB1 receptor; compared to SR 141716A): 8 fold
change in vivo at 30 mg/kg (mice [1]; Mus musculus, iv, at 30 mg/kg i.v., read-out: Max stim of spontaneous locomotor activity, Compound Alone): 73%
ED50 (mice [1]; [12]): > 30 mg/kg
Max % inhibit of spontaneous locomotor activity, Compound Alone (in words: stimulation instead of inhibition) (mice [1]; doses in mg/kg): stim at 1, 3, 10 & 30
ED50 (mice [2]; [13]): > 30 mg/kg
ED50 (mice [3]; [14]): > 30 mg/kg
Max % inhibit of spontaneous locomotor activity, Compound with 3 mg/kg Δ^9-THC (mice [4]; at 0.1 mg/kg i.v.): 89% (0.1)
SA: maximum % antagonism of 3 mg/kg Δ^9-THC (mice [4]; at 1 mg/kg i.v.): 97% (1)
Max stim of spontaneous locomotor activity, Compound with 3 mg/kg Δ^9-THC (mice [4]; at 10 mg/kg i.v.): 50% (10)
antagonism of the antinociceptive and hypothermic effects of Δ^9-THC (in words) (mice [5]; 3 mg/kg Δ^9-THC i.v.): full, dose-dependent antagonism

CCCCCNC(=O)c1nn(-c2ccc(Cl)cc2Cl)c(-c2ccc(Cl)cc2)c1C [Compound O-1269, N-(n-pentyl)-5-(4-chlorophenyl)-1-(2,4-dichlorophenyl)-4-methyl-1H-pyrazole-3-carboxamide]
Ki (CB1 receptor; Ki (nM)): 32 ± 5 nM
change in vivo at 1 mg/kg (mice [1]; Mus musculus, iv, at 1 mg/kg i.v., read-out: Max stim of spontaneous locomotor activity, Compound Alone): 7%
inhibition in vivo at 30 mg/kg (mice [1]; [15]): 87%
ED50 (mice [1]; [16]): 11 µmol/kg
ED50 (mice [2]; [17]): 21 µmol/kg
ED50 (mice [3]; [18]): 11 µmol/kg
SA: maximum % antagonism of 3 mg/kg Δ^9-THC (mice [4]; at 3 mg/kg i.v.): 38% (3)
Max % inhibit of spontaneous locomotor activity, Compound with 3 mg/kg Δ^9-THC (mice [4]; at 10 mg/kg i.v.): 91% (10)
Max stim of spontaneous locomotor activity, Compound with 3 mg/kg Δ^9-THC (in words) (mice [4]; [19]): None (1, 3 & 10)
% MPE: maximum % antagonism of 3 mg/kg Δ^9-THC (mice [6]; at 3 mg/kg i.v.): 66% (3)
RT: maximum % antagonism of 3 mg/kg Δ^9-THC (mice [7]; at 1 mg/kg i.v.): 43% (1)
in vivo cannabinoid agonist activity (in words) (mice [8]): agonist activity

CCCCCCCNC(=O)c1nn(-c2ccc(Cl)cc2Cl)c(-c2ccc(Cl)cc2)c1C [Compound O-1270, N-(n-heptyl)-5-(4-chlorophenyl)-1-(2,4-dichlorophenyl)-4-methyl-1H-pyrazole-3-carboxamide]
Ki (CB1 receptor; Ki (nM)): 48 ± 12 nM
change in vivo at 3 mg/kg (mice [1]; [20]): 29%
inhibition in vivo at 30 mg/kg (mice [1]; [15]): 80%
ED50 (mice [1]; [16]): 27 µmol/kg
stimulation of locomotor activity (mice [1]): 29%
ED50 (mice [2]; [17]): 20 µmol/kg
ED50 (mice [3]; [18]): 12 µmol/kg
Max % inhibit of spontaneous locomotor activity, Compound with 3 mg/kg Δ^9-THC (mice [4]; at 10 mg/kg i.v.): 87% (10)
Max stim of spontaneous locomotor activity, Compound with 3 mg/kg Δ^9-THC (in words) (mice [4]; [19]): None (10)
SA: maximum % antagonism of 3 mg/kg Δ^9-THC (in words) (mice [4]; [19]): None (10)
% MPE: maximum % antagonism of 3 mg/kg Δ^9-THC (mice [6]; at 3 mg/kg i.v.): 37% (3)
RT: maximum % antagonism of 3 mg/kg Δ^9-THC (mice [7]; at 1 mg/kg i.v.): 26% (1)
in vivo cannabinoid agonist activity (in words) (mice [8]): agonist activity

CCCCCC(=O)c1nn(-c2ccc(Cl)cc2Cl)c(-c2ccc(Cl)cc2)c1C [Compound O-1271]
Ki (CB1 receptor; Ki (nM)): 82 ± 10 nM
change in vivo at 3 mg/kg (mice [1]; [20]): 54%
inhibition in vivo at 30 mg/kg (mice [1]; [15]): 7%
ED50 (mice [1]; [12]): > 30 mg/kg
stimulation of locomotor activity (mice [1]): 54%
ED50 (mice [2]; [13]): > 30 mg/kg
ED50 (mice [3]; [14]): > 30 mg/kg
Max % inhibit of spontaneous locomotor activity, Compound with 3 mg/kg Δ^9-THC (mice [4]; at 3 mg/kg i.v.): 58% (3)
SA: maximum % antagonism of 3 mg/kg Δ^9-THC (mice [4]; at 10 mg/kg i.v.): 77% (10)
Max stim of spontaneous locomotor activity, Compound with 3 mg/kg Δ^9-THC (in words) (mice [4]; [19]): None (3 & 10)
% MPE: maximum % antagonism of 3 mg/kg Δ^9-THC (mice [6]; at 10 mg/kg i.v.): 65% (10)
RT: maximum % antagonism of 3 mg/kg Δ^9-THC (mice [7]; at 3 mg/kg i.v.): 36% (3)
in vivo cannabinoid agonist activity (in words) (mice [8]): eliminated in vivo cannabimimetic activity; also recorded: did not have agonist properties
average % antagonism across the three measures (mice [5]; in combination with 3 mg/kg Δ^9-THC i.v.): 59%

CCCCCCCC(=O)c1nn(-c2ccc(Cl)cc2Cl)c(-c2ccc(Cl)cc2)c1C [Compound O-1272]
Ki (CB1 receptor; read-out: Ki): 221 ± 36 nM
change in vivo at 3 mg/kg (mice [1]; [20]): 17%
inhibition in vivo at 30 mg/kg (mice [1]; [15]): 54%
SA: maximal effect produced by the analog (mice [1]; mice, i.v., at 30 mg/kg): 54% (30)^#
ED50 (mice [2]; [13]): > 30 mg/kg
RT: maximal effect produced by the analog (change in rectal temperature) (mice [3]; i.v., at 30 mg/kg): −3 (30)^# ° C.
in vivo cannabinoid agonist activity (in words) (mice [8]): eliminated in vivo cannabimimetic activity

Cc1c(C(=O)NN2CCCCC2)nn(-c2ccc(Cl)cc2Cl)c1-c1ccc(Cl)cc1 [SR141716A, N-(piperidin-1-yl)-5-(4-chlorophenyl)-1-(2,4-dichlorophenyl)-4-methyl-1H-pyrazole-3-carboxamide hydrochloride, reference compound]
SA: maximum % antagonism of 3 mg/kg Δ^9-THC (mice [4]; at 3 mg/kg i.v.): 100% (3)
% MPE: maximum % antagonism of 3 mg/kg Δ^9-THC (mice [6]; at 0.1 mg/kg i.v.): 96% (0.1)
SA: > dose, 50% activity not achieved at this highest dose tested (mice [9]; from Compton et al., 1996): >30^c mg/kg
TF: > dose, 50% activity not achieved at this highest dose tested (mice [10]; from Compton et al., 1996): >30^c mg/kg
RT: > dose, 50% activity not achieved at this highest dose tested (mice [11]; from Compton et al., 1996): >30^c mg/kg
antagonism of locomotor suppressant, antinociceptive and hypothermic effects of Δ^9-THC (in words) (mice [5]; 3 mg/kg Δ^9-THC i.v.): fully antagonized

CCCCCc1cc(O)c2c(c1)OC(C)(C)[C@@H]1CCC(C)=C[C@@H]21 [Δ^9-THC, Δ^9-tetrahydrocannabinol]
SA (suppression of spontaneous activity) ED50 (mice [9]; from Wiley et al., 1998): 0.92 µmol/kg
TF (tail flick, % MPE) ED50 (mice [10]; from Wiley et al., 1998): 2.7 µmol/kg
RT (rectal temperature) ED50 (mice [11]; from Wiley et al., 1998): 2.5 µmol/kg
